Source: patent US12187759B2, “TLR7 agonists” (Primmune Therapeutics, Inc., priority 2019, dated 2025)

Tests used:
human TLR7 = target: T1, human TLR7 (Homo sapiens, UniProt Q9NYK1); experiment: TLR7 reporter cell assay (HEK293 cells stably expressing human TLR7 with NF-κB-driven SEAP reporter); format: cell-based; conditions: 15-24 hours; for Emax at 500 µM: HEK293, 500 μM compound, SEAP activity (OD 650 nm) relative to 28.5 μM resiquimod, read-out: Response at 500 μM Compound as a Percent of Resiquimod Response; for EC50: fit of SEAP dose response, ymax from 28.5 μM resiquimod
T1 construct: host or cells: HEK293
T1 sequence (Q9NYK1 27-1049): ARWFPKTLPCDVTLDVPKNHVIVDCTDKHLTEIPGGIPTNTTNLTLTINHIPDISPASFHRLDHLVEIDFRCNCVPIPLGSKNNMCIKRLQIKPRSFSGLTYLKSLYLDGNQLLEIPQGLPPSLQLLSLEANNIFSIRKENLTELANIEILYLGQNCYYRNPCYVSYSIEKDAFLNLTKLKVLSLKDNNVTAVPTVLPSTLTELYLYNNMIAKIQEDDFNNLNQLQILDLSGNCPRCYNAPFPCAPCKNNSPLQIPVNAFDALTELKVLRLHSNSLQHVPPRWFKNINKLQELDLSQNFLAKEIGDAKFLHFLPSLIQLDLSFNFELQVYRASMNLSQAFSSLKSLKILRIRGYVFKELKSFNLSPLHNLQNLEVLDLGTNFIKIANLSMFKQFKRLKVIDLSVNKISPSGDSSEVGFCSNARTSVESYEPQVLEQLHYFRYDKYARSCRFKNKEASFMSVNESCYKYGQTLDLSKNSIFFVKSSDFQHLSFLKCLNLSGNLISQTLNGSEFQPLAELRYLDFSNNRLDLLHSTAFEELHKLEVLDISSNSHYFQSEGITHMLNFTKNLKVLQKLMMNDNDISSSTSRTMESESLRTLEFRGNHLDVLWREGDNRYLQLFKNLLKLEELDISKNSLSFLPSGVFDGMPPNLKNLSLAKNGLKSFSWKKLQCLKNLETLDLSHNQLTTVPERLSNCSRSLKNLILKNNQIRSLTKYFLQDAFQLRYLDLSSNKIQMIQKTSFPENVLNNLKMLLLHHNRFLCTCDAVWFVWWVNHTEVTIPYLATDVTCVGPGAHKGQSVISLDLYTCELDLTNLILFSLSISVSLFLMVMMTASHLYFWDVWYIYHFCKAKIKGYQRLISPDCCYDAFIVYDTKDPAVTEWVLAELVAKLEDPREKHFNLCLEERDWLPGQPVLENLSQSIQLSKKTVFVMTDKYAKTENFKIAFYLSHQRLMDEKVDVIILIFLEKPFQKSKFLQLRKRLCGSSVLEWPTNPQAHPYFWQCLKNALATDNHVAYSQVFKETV
Text: The engagement of TLRs by cognate ligands triggers downstream signaling cascades, leading to the activation of NF-κB and other transcription factors which initiate various immunomodulatory effects. The human embryonic kidney cell line, HEK293, is essentially non-responsive to TLR agonists, but ectopic expression of TLRs in these cells allows cognate agonists to activate endogenous NF-κB. Accordingly, the HEK293-TLR-NF-κB inducible reporter system is used to assay TLR agonists.
HEK293 cell lines stably expressing human TLR7 or TLR8 together with an NF-κB-driven-secreted alkaline phosphatase (SEAP) reporter were invented at InvivoGen (San Diego, California, USA) and used to assess compounds of the present invention for TLR7 and TLR8 agonist activities. Cells were seeded at 2-5×10^4 cells/well in 96 well plates (200 μl/well) and treated with various concentrations of compound (10 μl) for 15-24 hours. SEAP activity was determined by measuring OD at 650 nm; the media used to culture the cell lines contains the reagents required for SEAP detection. The EC50 values in Table 1 are calculated from fitting the dose response of measured SEAP activity for each compound to the following equation: Y=ymax*c^nh/(EC50^nh+c^nh)+blank where Y is the experimentally measured OD650 at concentration c of test article, blank is the observed OD650 in the absence of TLR7 agonist, ymax is the difference between the measured OD650 in the presence of 28.5 μM resiquimod and the blank and values of EC50 and nh are determined by nonlinear least squares analysis. Resiquimod is a known TLR7 and TLR8 agonist.
Compound A is 5-amino-3-((2R,3R,5S)-3-hydroxy-5-((S)-1-hydroxypropyl)tetrahydrofuran-2-yl)thiazolo[4,5-d]pyrimidine-2,7(3H,6H)-dione)

[1] = system: hPBMCs (Human Peripheral Blood Mononuclear Cells); experiment: Induction of interferon-α in hPBMCs in vitro; format: cell-based; conditions: Homo sapiens, PBMC; for Emax: 24 h, peak IFNα2a as percentage of peak response of standard 2-Amino-7-(cyclopropylmethyl)-9-B-D-xylofuranosyl-7,9-dihydro-1H-purine-6,8-dione, averaged across donors, read-out: IFNrmax, Relative Maximal IFNα2a Production (%); for minimal effective concentration: minimal effective concentration for interferon-α production (generally at least 80 pg/ml above baseline), geometric mean across at least three donors, 24 hours, read-out: Weighted MEC
Experimental: Treatment of hPBMCs with a TLR7 agonist typically induces some production of interferon-α as well as lesser amounts of a variety of other cytokines and chemokines. A typical experiment uses hPBMCs isolated from a healthy donor and placed in replicate cell culture wells; typically 1.0-7.5×10^6 cells are placed in each well. A test compound is added and the cells are cultured for 24 hours at 37° C. in a humidified atmosphere containing 5% CO2 post-addition; untreated controls are included. Secreted interferon-α production is measured using an a multisubtype interferon-α ELISA kit like those from PBL Assay Sciences or specifically as IFNα2a as part of a panel of cytokines and chemokines using luminex methodologies.
The minimal effective concentration (MEC) is the minimum concentration in a dose response curve where a significant increase in interferon-α production (generally at least 80 pg/ml) is observed above baseline. MEC values for each compound are determined for at least three donors. The weighted MEC for each compound is the geometric mean of all individual MECs across all donors. Concentrations tested typically consist of a two-fold dilution series starting at 100 μM. In the calculation of weighted MEC, any individual MEC value greater the highest concentration tested is arbitrarily set to two times the highest concentration tested unless all MECs for a compound exceed this value. The maximal amount of IFNα2a for each donor is determined from dose dependence for each compound.
In order to normalize for variation in each hPBMC preparation, these values are first transformed by expressing as a percentage of peak response measured with a standard (2-Amino-7-(cyclopropylmethyl)-9-B-D-xylofuranosyl-7,9-dihydro-1H-purine-6,8-dione) and then averaging the results across all donors, this average referred to as IFNrmax.
IFNmax is the maximum amount of IFN observed at any concentration across the evaluated concentration range. MEC and IFNmax values for three select compound are shown for three donors (Table 3). The range of tested concentrations were 0.625-5 μM for Imiquimod, 3.125-100 μM for both Compound A and Compound 1, 12.5-100 μM for Compound 2.

Row | Structure (SMILES) | Emax at 500 µM (human TLR7) [%] | EC50 (human TLR7) [µM] | Emax [1] [%] | minimal effective concentration [1] [µM]
1 | CC[C@H](O)[C@@H]1C[C@@H](O)[C@H](n2c(=O)n(CC3CC3)c3c(=O)[nH]c(N)nc32)O1 [Compound 4, 2-Amino-7-(cyclopropylmethyl)-9-((2R,3R,5S)-3-hydroxy-5-((S)-1-hydroxypropyl)tetrahydrofuran-2-yl)-7,9-dihydro-1H-purine-6,8-dione] | 81 | 132 | 226 | 12.5
2 | C=C=Cn1c(=O)n([C@@H]2O[C@H]([C@@H](O)CC)C[C@H]2O)c2nc(N)[nH]c(=O)c21 [Compound 8, 2-Amino-9-((2R,3R,5S)-3-hydroxy-5-((S)-1-hydroxypropyl)tetrahydrofuran-2-yl)-7-(propa-1,2-dien-1-yl)-7,9-dihydro-1H-purine-6,8-dione] | < 5 |  | 215 | 5.4
3 | C#CCn1c(=O)n([C@@H]2O[C@H]([C@@H](O)CO)C[C@H]2O)c2nc(N)[nH]c(=O)c21 [Compound 14, 2-Amino-9-((2R,3R,5S)-5-((S)-1,2-dihydroxyethyl)-3-hydroxytetrahydrofuran-2-yl)-7-(prop-2-yn-1-yl)-7,9-dihydro-1H-purine-6,8-dione] | < 5 |  | ≤ 10 | > 50
4 | C#CCn1c(=O)n([C@@H]2O[C@H]([C@@H](O)CN)C[C@H]2O)c2nc(N)[nH]c(=O)c21 [Compound 15, 2-Amino-9-((2R,3R,5S)-5-((S)-2-amino-1-hydroxyethyl)-3-hydroxytetrahydrofuran-2-yl)-7-(prop-2-yn-1-yl)-7,9-dihydro-1H-purine-6,8-dione] | < 5 |  | ≤ 10 | > 50
5 | C#CCn1c(=O)n([C@@H]2O[C@H]([C@@H](O)CNC)C[C@H]2O)c2nc(N)[nH]c(=O)c21 [Compound 16, 2-Amino-9-((2R,3R,5S)-3-hydroxy-5-((S)-1-hydroxy-2-(methylamino)ethyl)tetrahydrofuran-2-yl)-7-(prop-2-yn-1-yl)-7,9-dihydro-1H-purine-6,8-dione] | < 5 |  | ≤ 10 | > 50
6 | C#CCn1c(=O)n([C@@H]2O[C@H](C(C)(C)O)C[C@H]2O)c2nc(N)[nH]c(=O)c21 [Compound 18, 2-Amino-9-((2R,3R,5S)-3-hydroxy-5-(2-hydroxypropan-2-yl)tetrahydrofuran-2-yl)-7-(prop-2-yn-1-yl)-7,9-dihydro-1H-purine-6,8-dione] | < 5 |  | ≤ 10 | > 50
7 | CC[C@H](O)[C@@H]1C[C@@H](O)[C@H](n2c(=O)n(CCSC)c3c(=O)[nH]c(N)nc32)O1 [Compound 22, 2-Amino-9-((2R,3R,5S)-3-hydroxy-5-((S)-1-hydroxypropyl)tetrahydrofuran-2-yl)-7-(2-(methylthio)ethyl)-7,9-dihydro-1H-purine-6,8-dione] | 69 | 224 | 307 | 6.3

Now from value to compound, other results behind:

Row | Emax at 500 µM (human TLR7) [%] | EC50 (human TLR7) [µM] | Structure (SMILES) | Emax [1] [%] | minimal effective concentration [1] [µM]
8 | 58 | 182 | C#CCn1c(=O)n([C@@H]2O[C@H]([C@H](C)O)C[C@H]2O)c2nc(N)[nH]c(=O)c21 [Compound 9, 2-Amino-9-((2R,3R,5S)-3-hydroxy-5-((S)-1-hydroxyethyl)tetrahydrofuran-2-yl)-7-(prop-2-yn-1-yl)-7,9-dihydro-1H-purine-6,8-dione] | 191 | 6.2
9 | 92 | 119 | C#CCn1c(=O)n([C@@H]2O[C@H]([C@@H](O)CC)[C@H](F)[C@H]2O)c2nc(N)[nH]c(=O)c21 [Compound 13, 2-Amino-9-((2R,3S,4R,5R)-4-fluoro-3-hydroxy-5-((S)-1-hydroxypropyl)tetrahydrofuran-2-yl)-7-(prop-2-yn-1-yl)-7,9-dihydro-1H-purine-6,8-dione] | 353 | ≤ 3.3
10 | 58 | 358 | CC[C@H](O)[C@H]1O[C@@H](n2c(=O)n(CC3CC3)c3c(=O)[nH]c(N)nc32)[C@H](O)[C@H]1F [Compound 17, 2-Amino-7-(cyclopropylmethyl)-9-((2R,3S,4R,5R)-4-fluoro-3-hydroxy-5-((S)-1-hydroxypropyl)tetrahydrofuran-2-yl)-7,9-dihydro-1H-purine-6,8-dione] | 185 | ≤ 3.1
11 | < 5 |  | C#CCn1c(=O)n([C@@H]2O[C@H](C(C)(C)O)[C@H](F)[C@H]2O)c2nc(N)[nH]c(=O)c21 [Compound 19, 2-Amino-9-((2R,3S,4R,5R)-4-fluoro-3-hydroxy-5-(2-hydroxypropan-2-yl)tetrahydrofuran-2-yl)-7-(prop-2-yn-1-yl)-7,9-dihydro-1H-purine-6,8-dione] | ≤ 10 | > 50
12 | < 5 |  | C#CCn1c(=O)n([C@@H]2O[C@H]([C@H](O)CF)C[C@H]2O)c2nc(N)[nH]c(=O)c21 [Compound 23, 2-Amino-9-((2R,3R,5S)-5-((S)-2-fluoro-1-hydroxyethyl)-3-hydroxytetrahydrofuran-2-yl)-7-(prop-2-yn-1-yl)-7,9-dihydro-1H-purine-6,8-dione] | ≤ 10 | > 50
